The text below walks through data of patent US20250129056A1, “PROCESS FOR PREPARING HISTONE DEMETHYLASE INHIBITORS” (Celgene Corporation, priority 2021, published 2025).

Molecules are shown by their SMILES. Values after ≈ are worked out from the molar mass of the structure shown.

Series [1] in a line: Solubility of Compound 12 in common solvents (Table 5). To be noted: organic solvent or mixture. It counts as physicochemical. The text has this: The crystallization of Compound 12 also required optimization. Studies were undertaken to find the optimal solvent system of iPrOH/MeTHF.
Series [2] can be described thus: Solubility observations in water and common organic solvents. In kind it is physicochemical.
Series [3] relates to KDM4 family of histone demethylases. The following applies: cited from earlier work.

For the compound `CC(C)c1ccc(N(C)c2ccc3c(c2)OCC[C@H]3CNC(=O)OC(C)(C)C)cc1` [Compound 12], the solubility worked out at 5 mg/mL (≈ 12.2 mM) in series [1] (solvent 1-PrOH); 63 mg/mL (≈ 153 mM) in series [1] (solvent 2-MeTHF); 26 mg/mL (≈ 63.3 mM) in series [1] (solvent CPMe); 77 mg/mL (≈ 188 mM) in series [1] (solvent DMAc); 22 mg/mL (≈ 53.6 mM) in series [1] (solvent EtOAc); 20 mg/mL (≈ 48.7 mM) in series [1] (solvent HOAC). In addition, the solubility in series [1] (solvent IPA) turned out to be 3 mg/mL (≈ 7.31 mM); in series [1] (solvent IPAc) it was 14 mg/mL (≈ 34.1 mM); in series [1] (solvent MEK) it was 28 mg/mL (≈ 68.2 mM); in series [1] (solvent MIBK), 17 mg/mL (≈ 41.4 mM); in series [1] (solvent MTBE), 11 mg/mL (≈ 26.8 mM); in series [1] (solvent MeCN), 5 mg/mL (≈ 12.2 mM). Moreover, the solubility in series [1] (solvent MeOH) is 3 mg/mL (≈ 7.31 mM); in series [1] (solvent THF) it was ≥ 150 mg/mL; in series [1] (solvent toluene) it was 27 mg/mL (≈ 65.8 mM); in series [2] (in a number of common solvents), “low”.
`CC(C)c1ccc(N(C)c2ccc3c(c2)OCC[C@H]3CNc2cnccc2C(=O)O)cc1` [Compound 8, 3-({[(4R)-7-{methyl[4-(propan-2-yl)phenyl]amino}-3,4-dihydro-2H-1-benzopyran-4-yl]methyl}amino)pyridine-4-carboxylic acid]: in series [3], the “inhibition of the KDM4 family of histone demethylases” value was “selective inhibitor”. Moreover, the solubility entry in series [2] (in most common solvents) is “poor”; in series [2] (in water (low to neutral pH) and most common organic solvents, free acid) it was “undetectable”; in series [2] (in water and most common organic solvents), “poor”.
For `CC(C)(C)OC(=O)NC[C@@H]1CCOc2cc(Br)ccc21` [Compound 11], the solubility result in series [2] (in a number of common organic solvents including heptane) is recorded as “high”.
